US8071587B2, “(Dihydro)imidazoiso[5,1-A]quinolines” (N. V. Organon, priority 2009, dated 2011)
Counter-ions that a name gives are not always drawn.

melting point | Structure (SMILES)
121 to 123 °C | COc1cc2ccn3c(C(=O)N(C)C(C)(C)C)nc(-c4cccs4)c3c2cc1C=C(C)C [Example 16e, 8-Methoxy-9-(2-methyl-propenyl)-1-thiophen-2-yl-imidazo[5,1-a]isoquinoline-3-carboxylic acid tert-butyl-methyl-amide]
240 to 242 °C | COc1cc2c(cc1NC(=O)c1cscn1)-c1c(-c3cccs3)nc(C(=O)N(C)C(C)(C)C)n1CC2 [Example 11, 8-Methoxy-9-[(thiazole-4-carbonyl)-amino]-1-thiophen-2-yl-5,6-dihydro-imidazo[5,1-a]isoquinoline-3-carboxylic acid tert-butyl-methyl-amide]
123 to 124 °C | COc1cccc(Oc2cc3c(cc2OC)CCn2c(C(=O)N(C)C(C)(C)C)nc(-c4cccs4)c2-3)c1 [Example 43b, 8-Methoxy-9-(3-methoxy-phenoxy)-1-thiophen-2-yl-5,6-dihydro-imidazo[5,1-a]isoquinoline-3-carboxylic acid tert-butyl-methyl-amide]
210 to 212 °C | COc1cc2c(cc1NC(=O)c1csnn1)-c1c(-c3cccs3)nc(C(=O)N(C)C(C)(C)C)n1CC2 [Example 12, 8-Methoxy-9[([1,2,3]thiadiazole-4-carbonyl)-amino]-1-thiophen-2-yl-5,6-dihydro-imidazo[5,1-a]isoquinoline-3-carboxylic acid tert-butyl-methyl-amide]
126 °C | CC(C)Cc1ccc2c(c1)-c1c(-c3cccs3)nc(C(=O)N(C)C(C)(C)C)n1CC2 [Example 20b, 9-Isobutyl-1-thiophen-2-yl-5,6-dihydro-imidazo[5,1-a]isoquinoline-3-carboxylic acid tert-butyl-methyl-amide]
213 °C | COc1cc2c(cc1-c1cccc(N)c1)-c1c(-c3cccs3)nc(C(=O)N(C)C(C)(C)C)n1CC2 [Example 2k, 9-(3-Amino-phenyl)-8-methoxy-1-thiophen-2-yl-5,6-dihydro-imidazo[5,1-a]isoquinoline-3-carboxylic acid tert-butyl-methyl-amide]
147 to 148 °C | COc1cc2c(cc1CC(C)C)-c1c(-c3ncco3)nc(C(=O)N(C)C(C)(C)C)n1CC2 [Example 37f, 9-Isobutyl-8-methoxy-1-oxazol-2-yl-5,6-dihydro-imidazo[5,1-a]isoquinoline-3-carboxylic acid tert-butyl-methyl-amide]
115 to 117 °C | C=CCN1CCN(C(=O)c2nc(-c3cccs3)c3n2CCc2cc(OC)c(OC(C)C)cc2-3)CCC1=O (as salt: salt) [Example 28, 4-Allyl-1-(9-isopropoxy-8-methoxy-1-thiophen-2-yl-5,6-dihydro-imidazo[5,1-a]isoquinoline-3-carbonyl)-[1,4]diazepan-5-one]
154 to 156 °C | COc1cc2c(cc1C(=O)Nc1nncs1)-c1c(-c3cccs3)nc(C(=O)N(C)C(C)(C)C)n1CC2 [Example 3e, 8-Methoxy-1-thiophen-2-yl-5,6-dihydro-imidazo[5,1-a]isoquinoline-3,9-dicarboxylic acid 3-(tert-butyl-methyl-amide) 9-[1,3,4]thiadiazol-2-ylamide]
239 to 241 °C | COc1cc2ccn3c(C(=O)N(C)C(C)(C)C)nc(-c4cccs4)c3c2cc1-c1cnn(C)c1 [Example 17b, 8-Methoxy-9-(1-methyl-1H-pyrazol-4-yl)-1-thiophen-2-yl-imidazo[5,1-a]isoquinoline-3-carboxylic acid tert-butyl-methyl-amide]
141 to 142 °C | COc1cc2c(c(F)c1CC(C)C)-c1c(-c3cccs3)nc(C(=O)N(C)C(C)(C)C)n1CC2 [Example 48j, 10-Fluoro-9-isobutyl-8-methoxy-1-thiophen-2-yl-5,6-dihydro-imidazo[5,1-a]isoquinoline-3-carboxylic acid tert-butyl-methyl-amide]
180 °C | COc1cc2c(cc1-c1cccc(-n3cccn3)c1)-c1c(-c3cccs3)nc(C(=O)N(C)C(C)(C)C)n1CC2 [Example 2g, 8-Methoxy-9-(3-pyrazol-1-yl-phenyl)-1-thiophen-2-yl-5,6-dihydro-imidazo[5,1-a]isoquinoline-3-carboxylic acid tert-butyl-methyl-amide]
188 to 189 °C | COc1ccccc1-c1cc2c(cc1OC)CCn1c(C(=O)N(C)C(C)(C)C)nc(-c3cccs3)c1-2 [Example 2q, 8-Methoxy-9-(2-methoxy-phenyl)-1-thiophen-2-yl-5,6-dihydro-imidazo[5,1-a]isoquinoline-3-carboxylic acid tert-butyl-methyl-amide]
151 °C | COc1cc2c(cc1-c1cccc(C(=O)N(C)C)c1)-c1c(-c3cccs3)nc(C(=O)N(C)C(C)(C)C)n1CC2 [Example 2n, 9-(3-Dimethylcarbamoyl-phenyl)-8-methoxy-1-thiophen-2-yl-5,6-dihydro-imidazo[5,1-a]iso-quinoline-3-carboxylic acid tert-butyl-methyl-amide]
162 °C | COc1cc2c(cc1-c1ccc3c(c1)OCO3)-c1c(-c3cccs3)nc(C(=O)N(C)C(C)(C)C)n1CC2 [Example 2r, 9-Benzo[1,3]dioxol-5-yl-8-methoxy-1-thiophen-2-yl-5,6-dihydro-imidazo[5,1-a]isoquinoline-3-carboxylic acid tert-butyl-methyl-amide]
149 °C | COc1cc2c(cc1-c1cccc(N(C)C)c1)-c1c(-c3cccs3)nc(C(=O)N(C)C(C)(C)C)n1CC2 [Example 2l, 9-(3-Dimethylamino-phenyl)-8-methoxy-1-thiophen-2-yl-5,6-dihydro-imidazo[5,1-a]isoquinoline-3-carboxylic acid tert-butyl-methyl-amide]
176 to 177 °C | COc1cc2c(cc1-c1ccccn1)-c1c(-c3cccs3)nc(C(=O)N(C)C(C)(C)C)n1CC2 [Example 2b, 8-Methoxy-9-pyridin-2-yl-1-thiophen-2-yl-5,6-dihydro-imidazo[5,1-a]isoquinoline-3-carboxylic acid tert-butyl-methyl-amide]
159 to 161 °C | COc1cc2c(cc1NC(=O)c1cccnc1)-c1c(-c3cccs3)nc(C(=O)N(C)C(C)(C)C)n1CC2 [Example 9, 8-Methoxy-9-[(pyridine-3-carbonyl)-amino]-1-thiophen-2-yl-5,6-dihydro-imidazo[5,1-a]isoquinoline-3-carboxylic acid tert-butyl-methyl-amide]
216 °C | COc1cc2c(cc1-c1cccc(S(C)(=O)=O)c1)-c1c(-c3cccs3)nc(C(=O)N(C)C(C)(C)C)n1CC2 [Example 2p, 9-(3-Methanesulfonyl-phenyl)-8-methoxy-1-thiophen-2-yl-5,6-dihydro-imidazo[5,1-a]isoquinoline-3-carboxylic acid tert-butyl-methyl-amide]
161 to 162 °C | COc1cc2c(cc1-c1cccc(F)n1)-c1c(-c3cccs3)nc(C(=O)N(C)C(C)(C)C)n1CC2 [Example 2c, 9-(6-Fluoro-pyridin-2-yl)-8-methoxy-1-thiophen-2-yl-5,6-dihydro-imidazo[5,1-a]isoquinoline-3-carboxylic acid tert-butyl-methyl-amide]
140 to 143 °C | COc1cc2c(cc1CCC(C)(C)O)-c1c(-c3cccs3)nc(C(=O)N(C)C(C)(C)C)n1CC2 [Example 41c, 9-(3-Hydroxy-3-methyl-butyl)-8-methoxy-1-thiophen-2-yl-5,6-dihydro-imidazo[5,1-a]isoquinoline-3-carboxylic acid tert-butyl-methyl-amide]
